{"source": "patent US20220298213A1", "about": "“IN VIVO ENGINEERED CEREBLON PROTEIN” (Vividion Therapeutics, Inc., priority 2018, published 2022)", "key": {"CRBN-287": {"biological_target": "CRBN-287 (Homo sapiens, UniProt Q96SW2)", "sequence (Q96SW2 whole entry)": "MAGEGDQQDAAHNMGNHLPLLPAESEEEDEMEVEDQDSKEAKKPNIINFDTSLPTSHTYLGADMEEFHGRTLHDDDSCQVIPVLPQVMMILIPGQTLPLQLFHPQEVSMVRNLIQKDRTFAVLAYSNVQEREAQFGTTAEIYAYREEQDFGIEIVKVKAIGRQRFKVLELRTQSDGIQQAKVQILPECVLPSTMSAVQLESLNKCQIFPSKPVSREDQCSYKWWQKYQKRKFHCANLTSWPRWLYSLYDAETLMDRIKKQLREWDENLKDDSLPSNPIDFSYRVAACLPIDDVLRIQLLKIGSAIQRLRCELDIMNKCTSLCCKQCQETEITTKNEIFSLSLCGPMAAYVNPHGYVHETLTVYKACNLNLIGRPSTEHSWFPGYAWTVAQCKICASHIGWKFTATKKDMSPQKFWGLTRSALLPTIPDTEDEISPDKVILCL", "assay": "Cysteine probe labeling after IMiD pretreatment, PBMC lysates (Table 4)", "format": "binding", "parameters": "endogenous in cells; host or cells: PBMC lysates", "conditions": "read-out: inhibition of cysteine probe labeling, CRBN-287"}, "Protein-C": {"tested_on": "Protein-C", "assay": "Cysteine probe labeling after IMiD pretreatment, PBMC lysates (Table 4)", "format": "binding"}, "CRBN-318": {"biological_target": "CRBN-318 (Homo sapiens, UniProt Q96SW2)", "sequence (Q96SW2 whole entry)": "as above", "assay": "Cysteine probe labeling after IMiD pretreatment, PBMC lysates (Table 4)", "format": "binding", "parameters": "endogenous in cells; host or cells: PBMC lysates", "conditions": "read-out: inhibition of cysteine probe labeling, CRBN-318"}, "Protein-B": {"tested_on": "Protein-B", "assay": "Cysteine probe labeling after IMiD pretreatment, PBMC lysates (Table 4)", "format": "binding"}, "Protein-A": {"tested_on": "Protein-A", "conditions": "PBMC lysates"}}, "note": "Where two headings read alike, the source gives them in different places.", "data": [{"smiles": "O=C1CCC(N2Cc3c(OCc4ccc(CN5CCOCC5)cc4)cccc3C2=O)C(=O)N1", "note": "(stereo not drawn) [CC-220]", "values": [{"measurement": "inhibition at 2 µM", "setting": "CRBN-287", "result": 75, "unit": "%"}, {"measurement": "inhibition at 20 µM", "setting": "CRBN-287", "result": 77, "unit": "%"}, {"measurement": "inhibition at 50 µM", "setting": "CRBN-287", "result": 81, "unit": "%"}, {"measurement": "inhibition of cysteine probe labeling, Protein-C", "setting": "Protein-C; 2 μM", "result": 0}, {"measurement": "inhibition of cysteine probe labeling, Protein-C", "setting": "Protein-C; 20 μM", "result": 2}, {"measurement": "inhibition of cysteine probe labeling, Protein-C", "setting": "Protein-C; 50 μM", "result": 0}, {"measurement": "inhibition at 2 µM", "setting": "CRBN-318", "result": 70, "unit": "%"}, {"measurement": "inhibition at 20 µM", "setting": "CRBN-318", "result": 70, "unit": "%"}, {"measurement": "inhibition at 50 µM", "setting": "CRBN-318", "result": 72, "unit": "%"}, {"measurement": "inhibition of cysteine probe labeling, Protein-B", "setting": "Protein-B; 2 μM", "result": 23}, {"measurement": "inhibition of cysteine probe labeling, Protein-B", "setting": "Protein-B; 20 μM", "result": 11}, {"measurement": "inhibition of cysteine probe labeling, Protein-B", "setting": "Protein-B; 50 μM", "result": 17}, {"measurement": "inhibition of cysteine probe labeling, Protein-A", "setting": "Protein-A; 2 μM", "result": 16}, {"measurement": "inhibition of cysteine probe labeling, Protein-A", "setting": "Protein-A; 20 μM", "result": 19}, {"measurement": "inhibition of cysteine probe labeling, Protein-A", "setting": "Protein-A; 50 μM", "result": 13}]}, {"smiles": "Nc1cccc2c1C(=O)N(C1CCC(=O)NC1=O)C2=O", "note": "(stereo not drawn) [Pomalidomide]", "values": [{"measurement": "inhibition at 100 µM", "setting": "CRBN-287", "result": 70, "unit": "%"}, {"measurement": "inhibition at 500 µM", "setting": "CRBN-287", "result": 75, "unit": "%"}, {"measurement": "inhibition of cysteine probe labeling, Protein-C", "setting": "Protein-C; 20 μM", "result": 10}, {"measurement": "inhibition of cysteine probe labeling, Protein-C", "setting": "Protein-C; 100 μM", "result": 1}, {"measurement": "inhibition of cysteine probe labeling, Protein-C", "setting": "Protein-C; 500 μM", "result": 10}, {"measurement": "inhibition at 20 µM", "setting": "CRBN-318", "result": 59, "unit": "%"}, {"measurement": "inhibition of cysteine probe labeling, Protein-B", "setting": "Protein-B; 20 μM", "result": 0}, {"measurement": "inhibition of cysteine probe labeling, Protein-B", "setting": "Protein-B; 100 μM", "result": 14}, {"measurement": "inhibition of cysteine probe labeling, Protein-B", "setting": "Protein-B; 500 μM", "result": 0}, {"measurement": "inhibition of cysteine probe labeling, Protein-A", "setting": "Protein-A; 20 μM", "result": 8}, {"measurement": "inhibition of cysteine probe labeling, Protein-A", "setting": "Protein-A; 100 μM", "result": 10}, {"measurement": "inhibition of cysteine probe labeling, Protein-A", "setting": "Protein-A; 500 μM", "result": 13}]}]}
